Patent publication US20120046353A1 (priority 2010, published 2012)
“Also recorded” adds a separate entry of the source.

Columns and labels:
[1] = target: neuraminidase of avian influenza virus (H9N2) (Influenza A virus, UniProt A9LRT3); assay: biochemical; set-up: species or system avian influenza virus A/chicken/Korea/01310/2001(H9N2)
neuraminidase = type: biochemical
[2] = target: neuraminidase of novel influenza virus (Influenza A virus, UniProt C3W5S3); type: biochemical, novel influenza (H1N1) virus
[3] = target: neuraminidase of swine influenza virus (H1N1) (Influenza A virus, UniProt Q20F35); type: biochemical, swine influenza virus A/Sw/Kor/CAN1/04 (H1N1)
[4] = IC50 for neuraminidase of avian influenza virus (H9N2)

| SMILES | IC50 [1, 4] [nM] | Type of inhibition from Lineweaver Burk plots (neuraminidase) | Inhibitory activity against neuraminidase of novel influenza virus, in words [2] | IC50 ([1]; IC50 of Tamiflu against neuraminidase of avian influenza virus in combination with compound 4) [nM] | Inhibitory mechanism against neuraminidase of swine influenza virus [3] |
| --- | --- | --- | --- | --- | --- |
| COc1c(C)c(O)c2c(c1C)OC(c1ccccc1)CC2=O (centres unmarked) [Compound 6, 5-hydroxy-7-methoxy-6,8-dimethylflavanone] | > 503000 |  |  |  |  |
| Cc1c(O)cc(O)c2c1OC(c1ccccc1)CC2=O (centres unmarked) [Compound 12, 8-methylpinocembrin] | > 555000 |  |  |  |  |
| COc1c(C)c(O)c(C)c(O)c1C(=O)/C=C/c1ccccc1 [Compound 5, 2′,4′-dihydroxy-6′-methoxy-3′,5′-dimethylchalcone] |  | non-competitive inhibitor | excellent inhibitory activity |  |  |
| CCOC(=O)C1=C[C@@H](OC(CC)CC)[C@H](NC(C)=O)[C@@H](N)C1 [Tamiflu, oseltamivir phosphate, reference compound] | 13.6 |  |  | 1.47 |  |
| COc1c(C)c(O)c(C)c(O)c1C(=O)/C=C/c1ccccc1O [Compound 14, 2,2′,4′-trihydroxy-6′-methoxy-3′,5′-dimethylchalcone] |  | non-competitive inhibitor | excellent inhibitory activity |  |  |
| COc1cc(O)c(C)c2c1C(=O)CC(c1ccccc1)O2 (centres unmarked) [Compound 11, 7-hydroxy-5-methoxy-8-methylflavanone] | > 528000 |  |  |  |  |
| COc1c(C)c(O)c(C)c(O)c1C(=O)/C=C/c1ccc(O)cc1 [Compound 4, 4,2′,4′-trihydroxy-6′-methoxy-3′,5′-dimethylchalcone] |  | non-competitive inhibitor | excellent inhibitory activity |  | non-competitive inhibitor that reversibly inhibits; also recorded: noncompetitive inhibitor |
| COc1cc(O)c(C)c(O)c1C(=O)/C=C/c1ccccc1 [Compound 8, 2′,4′-dihydroxy-3′-methyl-6′-methoxychalcone] |  | non-competitive inhibitor | excellent inhibitory activity |  |  |
